Reference: patent US20210392889A1, “COMPOSITIONS COMPRISING PYRIDINE CARBOXYLATE HERBICIDES WITH PDS INHIBITOR HERBICIDES” (Corteva Agriscience LLC, priority 2018, published 2021)

Tests used:
[1] = system: Italian ryegrass (LOLMU, Lolium multiflorum.); assay: Greenhouse postemergence herbicidal effect, visual injury after 20-22 d; type: in vivo; details: Table 4
Excerpt: (§1) Seeds of the desired test plant species were planted in a 90:10% v/v (volume/volume) mixture of PRO-MIX® BX (Premier Tech Horticulture, Quakertown, Pa., USA) and PROFILE® GREENS GRADE™ (Profile Products LLC, Buffalo Grove, Ill., USA) planting mixture, which typically has a pH of 5.2 to 6.2 and an organic matter content of at least 50 percent, in plastic pots with a surface area of 103.2 square centimeters (cm^2). In some aspects, to ensure good germination and healthy plants, a fungicide treatment and/or other chemical or physical treatment was applied. The plants were grown for 7-36 days (d) in a greenhouse with an approximate 14-hour (h) photoperiod which was maintained at about 23° C. during the day and 22° C. during the night. Nutrients and water were added on a regular basis and supplemental lighting was provided with overhead metal halide 1000-Watt lamps as necessary. The plants were employed for testing when they reached the second or third true leaf stage.
(§2) Emulsifiable concentrates of each of each pyridine carboxylate herbicide (Compound A or Compound B) were prepared at 100 grams acid equivalent per liter (g ae/L). The emulsifiable concentrates also included a safener, cloquintocet-mexyl, at 120 grams active ingredient per liter (g ai/L). An aliquot of each emulsifiable concentrate was placed in a 25 mL glass vial and diluted with an aqueous mixture of 1.25% (v/v) ACTIROB® B esterified rapeseed oil (Bayer Crop Science, Research Triangle Park, N.C., USA) or MSO® Concentrate with LECI-TECH® methylated soybean oil (Loveland Products, Loveland, Colo., USA) to obtain concentrated stock solutions at the highest application rate for each herbicide, based upon a 12 milliliter (mL) application volume at a rate of 187 liters per hectare (L/ha). The concentrated stock solutions were further diluted with an aqueous mixture of 1.25% v/v ACTIROB® B or MSO® Concentrate with LECI-TECH® to obtain stock solutions at reduced application rates for each herbicide. Spray solutions of the herbicide combinations (Compound A or Compound B plus PDS inhibitor herbicide) were prepared by adding weighed amounts or aliquots of the PDS inhibitor herbicide to the stock solutions of Compound A or Compound B to form 12-mL spray solutions in two- or three-way combinations.
(§3) The spray solutions were applied to the plant material with an overhead Mandel track sprayer equipped with 8002E nozzles calibrated to deliver 187 L/ha over an application area of 0.503 square meters (m^2) at a spray height of 18 inches ([…] centimeters (cm)) above the average plant canopy. Control plants were sprayed in the same manner with the solvent blank. All pyridine carboxylate herbicide (component a) application rates are given as “g ae/ha” and all PDS inhibitor herbicide (component b) application rates are given as “g ai/ha.”
(§4) The treated plants and control plants were placed in a greenhouse as described above and watered by sub-irrigation to prevent wash-off of the test compounds. After 20-22 d, the condition of the test plants as compared with that of the control plants was determined visually and scored on a scale of 0 to 100 percent where 0 corresponds to no injury and 100 corresponds to complete kill.

[2] = system: common lambsquarters (CHEAL, Chenopodium album L.); assay: as above; type: in vivo; details: for visual injury: Table 1
Excerpt: as §1, §2, §3, §4

[3] = system: kochia (KCHSC, Kochia scoparia); assay: as above; type: in vivo; details: for visual injury: Table 1
Excerpt: as §1, §2, §3, §4

[4] = system: soybean (GLXMA=Glycine max); assay: as above; type: in vivo; details: Table 4
Excerpt: as §1, §2, §3, §4

[5] = system: wild chamomile (MATCH, Matricaria chamomilla); assay: as above; type: in vivo; details: for visual injury: Table 1
Excerpt: as §1, §2, §3, §4

[6] = system: wild mustard (SINAR, Sinapis arvensis); assay: as above; type: in vivo; details: for visual injury: Table 1
Excerpt: as §1, §2, §3, §4

[7] = system: winter rape (BRSNW, Brassica napus); assay: as above; type: in vivo; details: for visual injury: Table 1
Excerpt: as §1, §2, §3, §4

spring wheat (TRZAS) = assay: Greenhouse postemergence phytotoxicity on crop, visual injury after 20-22 d; type: in vivo, Triticum aestivum; details: for visual injury: Table 1
Excerpt: as §1, §2, §3, §4

spring barley (HORVS) = assay: as above; type: in vivo, Hordeum vulgare; details: for visual injury: Table 1
Excerpt: as §1, §2, §3, §4

In the case of `N#CCOC(=O)c1nc(-c2ccc3cc[nH]c3c2F)c(F)c(N)c1Cl` [Compound A, cyanomethyl 4-amino-3-chloro-5-fluoro-6-(7-fluoro-1H-indol-6-yl)pyridine-2-carboxylate], the “visual injury Obs” value ([1]; 7.5 g/ha) is reported as 0%, the “visual injury Obs” value ([1]; 10 g/ha) is reported as 0% and the visual injury ([2]; 7.5 g/ha) is reported as 88%. The “visual injury Obs” value ([2]; 7.5 g/ha, Table 2) was 70%, the “visual injury Obs” value ([2]; 7.5 g/ha, Table 3) was 60% and the “visual injury Obs” value ([2]; 7.5 g/ha, Table 4) was 97%. For the same molecule, the “visual injury Obs” value ([2]; 7.5 g/ha, Table 7) was 70%, the “visual injury Obs” value ([2]; 7.5 g/ha, Table 8) was 70% and the visual injury ([2]; 10 g/ha) was 93%. The “visual injury Obs” value ([2]; 10 g/ha, Table 2) was 83%, the “visual injury Obs” value ([2]; 10 g/ha, Table 3) was 90% and the “visual injury Obs” value ([2]; 10 g/ha, Table 4) was 93%. For the same molecule, the “visual injury Obs” value ([2]; 10 g/ha, Table 7) was 78%, the “visual injury Obs” value ([2]; 10 g/ha, Table 8) was 78% and the “visual injury Obs” value ([2]; 15 g/ha, Table 8) was 83%. The visual injury ([3]; 7.5 g/ha) was 63%, the “visual injury Obs” value ([3]; 7.5 g/ha, Table 2) was 50% and the “visual injury Obs” value ([3]; 7.5 g/ha, Table 5) was 63%. The “visual injury Obs” value ([3]; 7.5 g/ha, Table 6) was 63%, the “visual injury Obs” value ([3]; 7.5 g/ha, Table 7) was 65% and the “visual injury Obs” value ([3]; 7.5 g/ha, Table 8) was 70%. The visual injury ([3]; 10 g/ha) was 63%, the “visual injury Obs” value ([3]; 10 g/ha, Table 2) was 58% and the “visual injury Obs” value ([3]; 10 g/ha, Table 5) was 65%. For the same molecule, the “visual injury Obs” value ([3]; 10 g/ha, Table 6) was 65%, the “visual injury Obs” value ([3]; 10 g/ha, Table 7) was 70% and the “visual injury Obs” value ([3]; 10 g/ha, Table 8) was 70%. The “visual injury Obs” value ([3]; 15 g/ha, Table 8) was 70%, the “visual injury Obs” value ([4]; 7.5 g/ha) was 93% and the “visual injury Obs” value ([4]; 10 g/ha) was 95%. The visual injury ([5]; 7.5 g/ha) was 20%, the “visual injury Obs” value ([5]; 7.5 g/ha, Table 2) was 13% and the “visual injury Obs” value ([5]; 7.5 g/ha, Table 3) was 0%. The “visual injury Obs” value ([5]; 7.5 g/ha, Table 7) was 18%, the “visual injury Obs” value ([5]; 7.5 g/ha, Table 8) was 8% and the visual injury ([5]; 10 g/ha) was 30%. For the same molecule, the “visual injury Obs” value ([5]; 10 g/ha, Table 2) was 15%, the “visual injury Obs” value ([5]; 10 g/ha, Table 3) was 33% and the “visual injury Obs” value ([5]; 10 g/ha, Table 7) was 30%. The “visual injury Obs” value ([5]; 10 g/ha, Table 8) was 15%, the “visual injury Obs” value ([5]; 15 g/ha, Table 8) was 10% and the visual injury ([6]; 7.5 g/ha) was 88%. For the same molecule, the “visual injury Obs” value ([6]; 7.5 g/ha, Table 2) was 88%, the “visual injury Obs” value ([6]; 7.5 g/ha, Table 3) was 85% and the “visual injury Obs” value ([6]; 7.5 g/ha, Table 7) was 85%. For the same molecule, the visual injury ([6]; 10 g/ha) was 90%, the “visual injury Obs” value ([6]; 10 g/ha, Table 2) was 92% and the “visual injury Obs” value ([6]; 10 g/ha, Table 3) was 90%. The “visual injury Obs” value ([6]; 10 g/ha, Table 7) was 88%, the visual injury ([7]; 7.5 g/ha) was 35% and the “visual injury Obs” value ([7]; 7.5 g/ha, Table 7) was 63%. The “visual injury Obs” value ([7]; 7.5 g/ha, Table 8) was 60%, the visual injury ([7]; 10 g/ha) was 43% and the “visual injury Obs” value ([7]; 10 g/ha, Table 7) was 68%. The “visual injury Obs” value ([7]; 10 g/ha, Table 8) was 60%, the “visual injury Obs” value ([7]; 15 g/ha, Table 8) was 75% and the visual injury (spring wheat (TRZAS); 7.5 g/ha) was 0%. For the same molecule, the “visual injury Obs” value (spring wheat (TRZAS); 7.5 g/ha, Table 2) was 0%, the “visual injury Obs” value (spring wheat (TRZAS); 7.5 g/ha, Table 3) was 0% and the “visual injury Obs” value (spring wheat (TRZAS); 7.5 g/ha, Table 5) was 0%. The “visual injury Obs” value (spring wheat (TRZAS); 7.5 g/ha, Table 6) was 0%, the “visual injury Obs” value (spring wheat (TRZAS); 7.5 g/ha, Table 7) was 0% and the “visual injury Obs” value (spring wheat (TRZAS); 7.5 g/ha, Table 8) was 3%. The visual injury (spring wheat (TRZAS); 10 g/ha) was 0%, the “visual injury Obs” value (spring wheat (TRZAS); 10 g/ha, Table 2) was 0% and the “visual injury Obs” value (spring wheat (TRZAS); 10 g/ha, Table 3) was 0%. The “visual injury Obs” value (spring wheat (TRZAS); 10 g/ha, Table 5) was 0%, the “visual injury Obs” value (spring wheat (TRZAS); 10 g/ha, Table 6) was 0% and the “visual injury Obs” value (spring wheat (TRZAS); 10 g/ha, Table 7) was 0%. For the same molecule, the “visual injury Obs” value (spring wheat (TRZAS); 10 g/ha, Table 8) was 3%, the “visual injury Obs” value (spring wheat (TRZAS); 15 g/ha, Table 8) was 0% and the visual injury (spring barley (HORVS); 7.5 g/ha) was 0%. The “visual injury Obs” value (spring barley (HORVS); 7.5 g/ha, Table 2) was 8%, the “visual injury Obs” value (spring barley (HORVS); 7.5 g/ha, Table 3) was 0% and the “visual injury Obs” value (spring barley (HORVS); 7.5 g/ha, Table 7) was 0%. The “visual injury Obs” value (spring barley (HORVS); 7.5 g/ha, Table 8) was 8%, the visual injury (spring barley (HORVS); 10 g/ha) was 0% and the “visual injury Obs” value (spring barley (HORVS); 10 g/ha, Table 2) was 0%. The “visual injury Obs” value (spring barley (HORVS); 10 g/ha, Table 3) was 0%, the “visual injury Obs” value (spring barley (HORVS); 10 g/ha, Table 7) was 0% and the “visual injury Obs” value (spring barley (HORVS); 10 g/ha, Table 8) was 5%. For the same molecule, the “visual injury Obs” value (spring barley (HORVS); 15 g/ha, Table 8) was 3%.
